Laboratory results reported in patent publication US8653237B2, “Peptide analogues” (MannKind Corporation, priority 2005, dated 2014).
Each block holds one compound with its values, some of them ahead of it. Square brackets hold non-standard residues; d marks the D form. Peptide text beside a SMILES is read from it. Cha = N[C@@H](CC1CCCCC1)C(=O)O

Columns and labels:
[1] = molecular target: T1, HLA-A*0201 (Homo sapiens, UniProt P04439, D140Y/D185E/D98H/E176V/E277Q/G131W/G231S/I119V/I121R/I166T/I218V/L300P/L318F/N151K/N90K/P208A/P217A/Q86G/Q94H/R138H/R169H/T345S); test: Peptide binding using T2 cells (affinity to HLA-A*0201); parameters: endogenous in cells; host or cells: T2 cells; conditions: peptide concentration giving 50% of the saturation signal on T2 cells
[2] = molecular target: T1, HLA-A*0201; test: iTopia affinity assay (ED50); type: binding
Text: Avidin-coated microtiter plates containing class I monomer loaded with a so-called placeholder peptide were used to evaluate peptide binding, affinity and off-rate. The monomer-coated plates were supplied as part of the iTopia Epitope Discovery System Kit (Beckman Coulter, Inc., San Diego, Calif., USA). Assay buffers, anti-MHC-FITC mAb and beta2-microglobulin and control peptides were also supplied with the kits.
Plates were read on the fluorometer. Sigmoidal dose response curves were generated using Prism software.

[3] = system: T cell line specific for the native epitope PRAME425-433; test: Cross-reactivity: IFN-gamma secretion from T cell line specific for native PRAME425-433; type: cell-based, HHD transgenic mice; conditions: analog peptide at approximately 0.304 (so in the source); normalized to native peptide
Protocol: At 7 days after the last boost, the mice were sacrificed and a suspension of splenocytes prepared at 5×10^6 […] cells/ml in complete HL-1 medium. Cells were incubated with different concentrations of peptide for 48 hours in flat-bottomed 96-well plates (200 μl/well) and for an additional 24 hours with rIL-2 at 10 U/ml added to the wells. The supernatant was harvested and the concentration of IFN-gamma assessed by standard methods such as ELISA.
The analogs listed in FIGS. 26-28 were tested for various properties such as improved affinity and stability of binding, cross-reactivity with the native epitope, and immunogenicity as follows in Examples 40-48. […] The observed affinities of the analogs are reported as % binding (compared to the positive control) and ED50, and stability of binding as half time of dissociation. Cross reactivity with the native epitope was assessed by using the analog peptides to stimulate IFN-gamma secretion from a T cell line specific for the native epitope, essentially as described in Example 6. The data shown in FIGS. 26-28 were generated by stimulating with analog peptide at approximately 0.304. […] In some cases, the reported values are the average of two determinations.

[4] = system: T cell lines against natural epitope SSX-241-49; test: Cross-reactivity and functional avidity: IFN-gamma production by T cell lines raised against natural SSX-2 41-49; type: cell-based, HHD transgenic mice; conditions: T cells raised against native SSX-2 41-49 stimulated with analog, native = 1, lower = more active

Half-maximal Binding [1]: N/B
Compound: CC[C@H](C)[C@H](NC(=O)[C@H](CCCCN)NC(=O)[C@H](CCC(=O)O)NC(=O)[C@H](CO)NC(=O)[C@H](C)NC(=O)[C@@H](N)CC1CCCCC1)C(=O)N[C@@H](Cc1ccccc1)C(=O)N[C@@H](Cc1ccc(O)cc1)C(=O)N[C@H](C(=O)O)C(C)C [SSX2 41-49 (K41(Cha))] (H-[Cha]ASEKIFYV-OH)

Binding affinity (ED50) relative to native peptide (in words) [2]: reduced by almost 6-fold
Compound: Lys P1 analog: PRAME425-433 analog with Lys substituted for the Ser at the P1 position (KLLQHLIGL; UniProt P78395 425-433, looked up, variant S425K)
IFN-γ elicited, relative to native peptide [3]: 40%

Compound: CC[C@H](C)[C@H](NC(=O)[C@H](CCCCN)NC(=O)[C@H](CCC(=O)O)NC(=O)[C@H](CO)NC(=O)[C@@H](NC(=O)[C@@H](N)Cc1ccccc1)C(C)C)C(=O)N[C@@H](Cc1ccccc1)C(=O)N[C@@H](Cc1ccc(O)cc1)C(=O)N(C)[C@H](C(=O)O)C(C)C [SSX2 41-49 (K41F, A42V, V49MeVal)]
Cross-reactivity and fct avidity (native to analogs) [4]: 10

Half-maximal Binding [1]: N/B
Compound: CC[C@H](C)[C@H](NC(=O)[C@H](CCCCN)NC(=O)[C@H](CCC(=O)O)NC(=O)[C@H](CO)NC(=O)[C@H](Cc1cccc2ccccc12)NC(=O)[C@@H](N)CCCCN)C(=O)N[C@@H](Cc1ccccc1)C(=O)N[C@@H](Cc1ccc(O)cc1)C(=O)N[C@H](C(=O)O)C(C)C [SSX2 41-49 (A42(Nal-1)), KNal-1SEKIFYV]
